Marks after values point to notes of the source that are not given here.
Tests used:
Galectin-3 = Galectin-3 (Homo sapiens, UniProt P17931); conditions: relative affinity, lactose on galectin-3 given as 1; cited from earlier work
Galectin-3C = target: T1, Galectin-3C (Homo sapiens, UniProt P17931); conditions: relative affinity, same scale as galectin-3 column; cited from earlier work
T1 construct: The digestion produced a 143 amino acid residue polypeptide beginning with Gly-108

[1] = tested on: dog-kidney epithelial cell line MDCK II (Madin-Darby Canine Kidney); conditions: lactose-inhibitable, cited from earlier work
[2] = tested on: Alva-41 prostate carcinoma cells; experiment: In vitro growth inhibition (cytotoxicity) by cisplatin nanoparticles; type: cell-based, human; conditions: at doses greater than 60 µg/ml
Experimental: FIG. 3 is a graph showing the in vitro cytotoxicity of nanoparticles comprising cisplatin and various cell recognition components for Alva-41, human tumor cells derived from a prostate carcinoma metastasis; and
Cisplatin was nanoencapsulated into the various candidate tumor-binding agents as described previously and nanoparticles were compared for growth inhibition in a metastatic variant of Alva-41 prostate carcinoma cells and Ca-9-22. Formulas were tested in duplicate in two separate experiments. Results are illustrated for the prostate cell line in FIG. 3. Referring to FIG. 3, PEX-MMP-l/Cisplatin refers to s50 nanoparticles comprising cisplatin and the Recombinant Pex binding domain of membrane-associated Matrix Metalloproteinase-1 (see Bello et. al, Cancer Research (2001) 61: 8730-36); Tenascin/Cisplatin refers to s50 nanoparticles having tenascin and cisplatin, FN-PHSCN/Cisplatin refers to nanoparticles comprising the FN-PHSCN fragment and cisplatin, galectin-3/cisplatin refers to s50 nanoparticles comprising recombinant N-terminally truncated galectin-3 and cisplatin, hyaluronan/cisplatin refers to s50 nanoparticles comprising hyaluronan and cisplatin, and naked cisplatin refers to the addition of free cisplatin to the cell medium. In these experiments cells were plated at 5,000 per well and followed for 72 hours. […]

[3] = Maximum tolerated dose in nude mice; type: in vivo; conditions: without overt adverse effects
[4] = design: species or system nude mice; conditions: mouse, in vivo, im
[5] = tested on: orthotopically implanted tumors derived from breast cancer cell line MDA-MB435; experiment: Orthotopic mouse model of human breast cancer; type: in vivo, nude mice
Experimental: The safety, plasma half-life, and efficacy of galectin-3C in an orthotopic mouse model of human breast cancer was evaluated. A recent feasibility study of the anticancer activity of recombinant human galectin-3 N-terminally truncated by exhaustive digestion with Clostridium histiolyticum collagenase type VII (Sigma; St. Louis, Mo.), (36, 75) in an orthotopic mouse model of metastatic breast cancer (22) produced promising results. The digestion produced a 143 amino acid residue polypeptide beginning with Gly-108. In treated animals the number of primary tumors that metastasized was less than controls by 3-fold (P=0.031), and the mean primary tumor volume of the treated animals was 61% less than the controls (P=0.009). The results provide compelling evidence that treatment with an N-terminally truncated form of galectin-3 could useful in treatment and prevention of cancer, especially metastatic cancer.
One example of the use in vivo of N-terminally truncated galectin-3 is as a potential therapeutic agent for breast cancer. It was determined that therapy with an N-terminally truncated form of galectin-3 is efficacious for inhibition of metastases. To this end, recombinant galectin-3 was produced and the N-terminally truncated galectin-3 was derived by collagenase enzyme digestion and affinity chromatography. Injected N-terminally truncated galectin-3 was detected by metabolic labeling with ^35S methionine prior to collagenase cleavage. […] Mice bearing orthotopically implanted tumors derived from breast cancer cell line MDA-MB435 were treated intramuscularly twice daily for 90 days with N-terminally truncated galectin-3 or a vehicle control. […] In a recent study at the end of the treatment period, the number of treated animals with primary tumors that metastasized was less than controls by 3-fold (P=0.031), and the mean primary tumor volume of the treated animals was 61% less than the controls (P=0.009). The results provide compelling evidence that treatment with an N-terminally truncated form of galectin-3 could useful in treatment and prevention of cancer, especially metastatic cancer. The truncated form of galectin-3 was efficacious in reducing metastases, and the tumor volumes and weights of primary tumors.

[6] = intramuscularly twice daily for 90 days

Sequence of Galectin-3 (P17931 whole entry): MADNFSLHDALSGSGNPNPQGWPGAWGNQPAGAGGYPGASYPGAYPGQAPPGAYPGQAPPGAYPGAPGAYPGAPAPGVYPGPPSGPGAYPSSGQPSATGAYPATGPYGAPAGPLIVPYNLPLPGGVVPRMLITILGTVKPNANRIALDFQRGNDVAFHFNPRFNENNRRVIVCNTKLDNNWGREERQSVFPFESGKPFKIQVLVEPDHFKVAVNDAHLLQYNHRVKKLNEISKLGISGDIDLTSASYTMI
T1 sequence (P17931 108-250): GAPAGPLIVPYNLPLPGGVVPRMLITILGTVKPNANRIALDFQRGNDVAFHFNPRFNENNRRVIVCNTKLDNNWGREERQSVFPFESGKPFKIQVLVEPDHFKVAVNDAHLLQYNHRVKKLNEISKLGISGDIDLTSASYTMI

CO[C@H]1O[C@H](CO)[C@H](O)[C@H](O[C@H]2O[C@H](CO)[C@H](O)[C@H](O)[C@H]2O)[C@H]1O [Galα1→3GalαOme]
Relative Carbohydrate Affinities, Galectin-3 (Galectin-3): 0.2

Galβ1→4GlcNAc [Galβ1→4GlcNAc (LacNAc)]
Relative Carbohydrate Affinities, Galectin-3 (Galectin-3): 11.3

(LacNAc)5
Relative Carbohydrate Affinities, Galectin-3 (Galectin-3): 137 | Relative Carbohydrate Affinities, Galectin-3C (Galectin-3C): 60.5

galectin-3: intact wild-type galectin-3, chimera type β-galactoside binding lectin (SEQ ID NO. 3)
apically bound radiolabeled galectin-3 endocytosed ([1]; Transwell chambers): more than 90% | galectin-3 transcytosed ([1]; after 120 min): 20%

N.N.[Cl][Pt][Cl] [free cisplatin, cisplatin]
activity compared to the other nanocapsule formulations [2]: greatest activity

N-terminally truncated galectin-3: recombinant human galectin-3 truncated by collagenase digestion; 143 amino acid polypeptide beginning with Gly-108 (SEQ ID NO. 1)
maximum tolerated dose [3]: greater than 125 mg/kg | pharmacokinetic elimination half-life [4]: 4.56 h | mean primary tumor volume less than the controls ([5]; end of treatment period, P=0.009): 61% | number of treated animals with primary tumors that metastasized, less than controls ([5]; end of treatment period, P=0.031): 3 fold | mean tumor volumes compared with control mice [5, 6]: statistically significantly less | mean tumor weights compared with control mice [5, 6]: statistically significantly less | mice with lymph node metastases compared with control group [5, 6]: fewer numbers of mice exhibited lymph node metastases

Galβ1→3GlcNAc
Relative Carbohydrate Affinities, Galectin-3 (Galectin-3): 6.3

(LacNAc)2
Relative Carbohydrate Affinities, Galectin-3 (Galectin-3): 20* | Relative Carbohydrate Affinities, Galectin-3C (Galectin-3C): 54

Galβ1→4(Fucα1→3)GlcNAc [Galβ1→4(Fucα1→3)GlcNAc (LeX)]
Relative Carbohydrate Affinities, Galectin-3 (Galectin-3): <0.02

Source: patent publication US20040023855A1, “Biologic modulations with nanoparticles” (priority 2002, published 2004)
